From patent US6558951B1, “Maturation of dendritic cells with immune response modifying compounds” (3M Innovative Properties Company, priority 1999, dated 2003)

How the values were obtained:
Type in all cases: cell-based, human
allogeneic T cells = assay: Allogeneic lymphocyte activation (primary MLR) by treated MO-DC: T cell proliferation and cytokines
Method: Allogeneic Lymphocyte Activation. T-cells were isolated using T-Cell Purification Columns according to manufacturer's specifications (R&D Systems, Minneapolis, Minn). […] Dendritic cells were subsequently washed, resuspended in cRPMI and added at various concentrations (1-32×10^3 per well) to purified responder T-cells (1×10^5 per well) in 96-well flat-bottomed microtiter plates (BD Labware) in a total volume of 200 μl. […] Each well received 1 μCi [^3H]TdR and was harvested 18 hours later. Results are presented as mean CPM±SEM of triplicate wells. […] Cytokine Analysis. Cytokine levels were measured by ELISA. […] Human IL-6 kits were obtained from Biosource International (Camarillo, Calif.). Human IL-5, IL-8, MIP-1α, MCP-1 and RANTES were purchased from R&D Systems. All ELISA were run according to manufacturer's specifications. […] IFN-α and IFN-β specific antibodies were used to determine which type I IFN was present in the MO-DC supernatants. Results for all ELISAs are presented in pg/ml, whereas IFN results are presented in U/ml.

[1] = tested on: syngeneic CD3-enriched peripheral blood T cells; assay: Autologous T cell activation by treated MO-DC (anamnestic response to tetanus toxoid)
Method: Autologous T Cell Activation. Autologous T cells and R-848-treated MO-DC were prepared as described for allogeneic T cell stimulation. MO-DC were cultured with R-848 [2 μg/ml] and tetanus toxoid [10 μg/ml] for 24 hours. The MO-DC were washed and cultured at graded doses with PBMC-derived CD3^+ T cells for 7 days. Cell proliferation and analysis were determined as described. Supernatants were also collected; from the same cultures prior to pulsing with [^3H]TdR and analyzed for IFN-γ and IL-5.
Cytokine Analysis. Cytokine levels were measured by ELISA. Human TNF-α, IL-12 (p40/p70), IFNγ, IL-4 and IL-2 kits were purchased from Genzyme (Cambridge, Mass.). Human IL-6 kits were obtained from Biosource International (Camarillo, Calif.). Human IL-5, IL-8, MIP-1α, MCP-1 and RANTES were purchased from R&D Systems. All ELISA were run according to manufacturer's specifications. IFN levels were; measured by bioassay (40). IFN-α and IFN-β specific antibodies were used to determine which type I IFN was present in the MO-DC supernatants. Results for all ELISAs are presented in pg/ml, whereas IFN results are presented in U/ml.

[2] = tested on: monocyte-derived dendritic cells (MO-DC); assay: MO-DC cytokine and chemokine secretion (ELISA or bioassay of culture supernatants); conditions: for IFN-α: bioassay; for IFN-α / IL-6 / IL-8 / IL-12 / MCP-1 / MIP-1α / TNF-α: mean ± SEM
Method: Generation of Monocyte-Derived Dendritic Cells (MO-DC). PBMC were isolated with Histopaque HybriMax-1077 density gradient (Sigma) from healthy volunteers after obtaining informed consent. CD14^+ cells were purified by positive selection using CD14^+ microbeads in conjunction with the MiniMACS system (Miltenyi Biotech, Auborn, Calif.) by following the manufacturer's instructions. Purity, as assessed by flow cytometry, was greater than 90%. […] Fresh medium containing GM-CSF and IL-4 was added every three days. MO-DC were routinely used between days 7 and 8 of culture. As a control, depleted lymphocytes were cultured in the same fashion. In Vitro MO-DC Stimulation. […] Cells were subsequently analyzed by flow cytometry for the expression of various cell surface markers, and the cell culture supernatants were analyzed for various cytokines and chemokines by ELISA. Cytokine Analysis. Cytokine levels were measured by ELISA. […] Human IL-6 kits were obtained from Biosource International (Camarillo, Calif.). Human IL-5, IL-8, MIP-1α, MCP-1 and RANTES were purchased from R&D Systems. All ELISA were run according to manufacturer's specifications. […] IFN-α and IFN-β specific antibodies were used to determine which type I IFN was present in the MO-DC supernatants. Results for all ELISAs are presented in pg/ml, whereas IFN results are presented in U/ml.

[3] = tested on: monocyte-derived dendritic cells (MO-DC); assay: MO-DC cell surface maturation marker expression by flow cytometry
Method: Generation of Monocyte-Derived Dendritic Cells (MO-DC). […] CD14^+ cells were purified by positive selection using CD14^+ microbeads in conjunction with the MiniMACS system (Miltenyi Biotech, Auborn, Calif.) by following the manufacturer's instructions. […] Fresh medium containing GM-CSF and IL-4 was added every three days. MO-DC were routinely used between days 7 and 8 of culture. As a control, depleted lymphocytes were cultured in the same fashion. In Vitro MO-DC Stimulation. […] Cells were subsequently analyzed by flow cytometry for the expression of various cell surface markers, and the cell culture supernatants were analyzed for various cytokines and chemokines by ELISA. Cell Surface and Intracellular Flow Cytometry. […] Cells (5-10^5) were incubated for 15 minutes incubation at 4° C. with purified IgD (Becton Dickinson) to block non-specific binding, and then the cells were stained for 30 minutes with the antibodies at 4° C. in PBS containing 10% FCS and 0.1% sodium azide. After washing in PBS, the cells were analyzed using a FACScan flow cytometer and Cell Quest software (Becton Dickinson).

[4] = MO-DC treated with 2 and 8 μg/ml, MLR supernatants, 96 hours
[5] = MO-DC treated with 2 μg/ml and 10 μg/ml tetanus toxoid 24 hours, 7 days co-culture
[6] = 0.1 μg/ml, 24 hours, MO-DC supernatant
[7] = 0.4 μg/ml, 24 hours, MO-DC supernatant
[8] = 2.0 μg/ml, 24 hours, MO-DC supernatant
[9] = 8.0 μg/ml, 24 hours, MO-DC supernatant
[10] = treatment time 1 hr, 2 μg/ml R-848 or 1 μg/ml LPS
[11] = treatment time 6 hr, 2 μg/ml R-848 or 1 μg/ml LPS
[12] = treatment time 24 hr, 2 μg/ml R-848 or 1 μg/ml LPS
[13] = 0.1 μg/ml, 24 hours, vs vehicle

In the case of `CCOCc1nc2c(N)nc3ccccc3c2n1CC(C)(C)O` [R-848, 4-amino-2-ethoxymethyl-α,α-dimethyl-1H-imidazo [4,5-c]quinoline-1-ethanol], the “allogeneic T cell proliferation vs untreated MO-DC” value (allogeneic T cells; MO-DC treated for 6 hours) is reported as “significantly enhanced”, the “allogeneic T cell proliferation vs untreated MO-DC” value (allogeneic T cells; MO-DC treated for less than 6 hours) is reported as “not significantly increased” and the “enhancement of IFN-γ production vs untreated MO-DC cultures” value (allogeneic T cells; [4]) is reported as 2- to 3 fold. For the same compound, the “enhancement of IL-2 production vs untreated MO-DC cultures” value (allogeneic T cells; [4]) was 2- to 3 fold, the “enhancement of IL-5 production vs untreated MO-DC cultures” value (allogeneic T cells; [4]) was 2- to 3 fold and the “IL-2, IL-5 or IFN-γ production by T cells” value (allogeneic T cells; T cells cultured in the presence of compound, without added MO-DC) was “do not produce”. For the same compound, the “IFN-γ production vs MO-DC cultured only with tetanus toxoid antigen” value [1, 5] was 4- to 11 fold, the “increase of syngeneic T cell proliferation vs MO-DC not treated with R-848” value [1, 5] was 2to 3 fold and the “IL-5 in culture supernatants” value ([1]; MO-DC treated with 2 μg/ml and 10 μg/ml tetanus toxoid, autologous MO-DC/T cell system) was “not detected”. For the same compound, the IFN-α [2, 6] was 8 ± 3 U/ml, the IL-6 [2, 6] was 20 ± 12 pg/mL and the IL-8 [2, 6] was 425 ± 132 pg/mL. It also gave an IL-12 [2, 6] of 70 ± 21 pg/mL, an MCP-1 [2, 6] of 3603 ± 2158 pg/mL and an MIP-1α [2, 6] of 57 ± 57 pg/mL. The TNF-α [2, 6] was 6 ± 3 pg/mL, the IFN-α [2, 7] was 8 ± 3 U/ml and the IL-6 [2, 7] was 399 ± 208 pg/mL. For the same compound, the IL-8 [2, 7] was 5125 ± 2430 pg/mL, the IL-12 [2, 7] was 106 ± 27 pg/mL and the MCP-1 [2, 7] was 4864 ± 2213 pg/mL. The MIP-1α [2, 7] was 511 ± 314 pg/mL, the TNF-α [2, 7] was 14 ± 4 pg/mL and the “stimulation time for maximal IL-12 secretion” value ([2]; 2 μg/ml R-848 or 1 μg/ml LPS) was “between six and twenty four hours”. For the same compound, the “stimulation time for maximal TNF-α secretion” value ([2]; 2 μg/ml R-848 or 1 μg/ml LPS) was “between one and six hours”, the IFN-α [2, 8] was 27 ± 7 U/ml and the IL-6 [2, 8] was 6729 ± 1888 pg/mL. The IL-8 [2, 8] was 50092 ± 10385 pg/mL, the IL-12 [2, 8] was 15984 ± 3860 pg/mL and the MCP-1 [2, 8] was 12941 ± 5802 pg/mL. The MIP-1α [2, 8] was 15412 ± 5244 pg/mL, the TNF-α [2, 8] was 1540 ± 371 pg/mL and the IFN-α [2, 9] was 41 ± 12 U/ml. It also gave an IL-6 [2, 9] of 9690 ± 1269 pg/mL, an IL-8 [2, 9] of 66988 ± 11863 pg/mL and an IL-12 [2, 9] of 19640 ± 3966 pg/mL. The MCP-1 [2, 9] was 16249 ± 7661 pg/mL, the MIP-1α [2, 9] was 25956 ± 5782 pg/mL and the TNF-α [2, 9] was 2208 ± 240 pg/mL. The “inhibition of induced IFN bioactivity by neutralizing IFN-α” value ([2]; MO-DC supernatants, IFN bioassay) was “greater than 95%”, the IL-12 [2, 10] was 65 ± 18 pg/mL and the TNF-α [2, 10] was 32 ± 10 pg/mL. It also gave an IL-12 [2, 11] of 4446 ± 2438 pg/mL, a TNF-α [2, 11] of 1053 ± 707 pg/mL and an IL-12 [2, 12] of 13153 ± 5484 pg/mL. For the same compound, the TNF-α [2, 12] was 335 ± 201 pg/mL, the “CD83 cell surface expression” value [3, 13] was “no increase” and the “CD86 cell surface expression” value [3, 13] was “no increase”. The “increase in CD40 expression over vehicle treated MO-DC” value ([3]; 2 μg/ml, 24 hours) was 2 fold, the “increase in CD80 expression over vehicle treated MO-DC” value ([3]; 2 μg/ml, 24 hours) was 2 fold and the “maximal average increase in CD80 expression (MFI)” value ([3]; 2 μg/ml, 24 hours) was 3- to 4 fold. The “maximal average increase in CD86 expression (MFI)” value ([3]; 2 μg/ml, 24 hours) was 3- to 4 fold, the “decrease in CD1a expression” value ([3]; 2 μg/ml, 24 hours, vs vehicle) was “not statistically significant” and the “increase in cell surface HLA-DR expression” value ([3]; 2 μg/ml, 24 hours, vs vehicle) was “not quantitatively significant”. For the same compound, the “culture time giving maximal DC maturation marker expression” value ([3]; 2 μg/ml, 24, 48, 72 and 96 hour stimulation examined) was 24 h, the CD86 expression ([3]; 0.4, 2 and 8 μg/ml, 24 hours, vs vehicle) was “Enhanced” and the “cell surface expression of CD83” value ([3]; 2 and 8 μg/ml, 24 hours, vs vehicle) was “Enhanced”. For the same compound, the CD83 expression ([3]; pulsed 6 hours, stained immediately, 2 μg/ml R-848 or 1 μg/ml LPS) was “significant increase”, the “CD40, CD80, CD86 and HLA-DR expression” value ([3]; pulsed 6 hours, stained immediately, 2 μg/ml R-848 or 1 μg/ml LPS, vs medium control) was “not statistically significant” and the “CD83 and CD40 expression” value ([3]; pulsed 6 hours, washed, re-cultured 18 hours, 2 μg/ml R-848 or 1 μg/ml LPS) was “significant increase”. The “expression of CD83, CD80, CD86, CD40 or HLA-DR” value ([3]; pulsed one hour with 2 μg/ml R-848 or 1 μg/ml LPS, then stained) was “did not show enhanced expression” and the “expression of CD83, CD80, CD86, CD40 or HLA-DR” value ([3]; pulsed one hour, washed, re-cultured 23 hours, 2 μg/ml R-848 or 1 μg/ml LPS) was “did not show enhanced expression”.
